Source: US11453671B2, “Pyrazolopyrimidine inhibitors of JAK kinases and uses thereof” (Genentech, Inc., priority 2020, dated 2022)
Read-outs that look alike come from different tables or passages of the source.

What was measured:
[1] = Cell cytotoxicity assay HEK-293T (CellTiter-Glo, 72 hours); assay type: cell-based; settings: human, HEK-293T cells, Table 3; 72 hours, top concentration of 50 μM; read-out: Cytotox K-293 EC50
Description: (§1) Cytotoxicity assays. Hepatocyte toxicity, general cytotoxicity or cytotoxicity of unknown mechanism is an undesirable feature for a potential drug, including inhaled drugs. It may be of benefit for an inhaled JAK1 or JAK1/JAK2 inhibitor to have low intrinsic cytotoxicity against various cell types. Typical cell types used to assess cytotoxicity include both primary cells such as human hepatocytes, and proliferating established cell lines such as Jurkat and HEK-293. […] Methods of measuring cytotoxicity are known in the art. In some embodiments, compounds described herein were tested as follows:
(§2) (a) Jurkat and HEK293T cells were maintained at a sub confluent density in T175 flasks. Cells were plated at 450 cells/45 μl medium in Greiner 384 well black/clear tissue culture treated plates. (Greiner Catalog #781091). After dispensing cells, plates were equilibrated at room temperature for 30 minutes. After 30 minutes at room temperature, cells were incubated overnight at 37° C. in a CO2 and humidity controlled incubator. The following day, cells were treated with compounds diluted in 100% DMSO (final DMSO concentration on cells=0.5%) with a 10 point dose-response curve with a top concentration of 50 μM. Cells and compounds were then incubated for 72 hours overnight at 37° C. in a CO2 and humidity controlled incubator. After 72 hours of incubation, viability was measured using CellTiterGlo® (Promega Catalog #G7572) to all wells. After incubation at room temperature for 20 minutes, plates were read on EnVision™ (Perkin Elmer Life Sciences) using luminescence mode;
(§3) A549 (ATCC® CCL-185™), Jurkat clone E6-1 (ATCC® TIB-152™) and HEK-293T (ATCC® CRL-1573™) cells maintained at a sub-confluent density in T175 flasks were used. Cells in exponential growth phase were plated (450 cells in 45 μL of medium) in Greiner 384-well black/clear tissue culture treated plates (Greiner Catalog No. 781091). After dispensing cells, plates were allowed to equilibrate at room temperature for 30 minutes, after which time the cell plates were placed overnight in a 37° C. CO2 and humidity-controlled incubator. The following day, cells were treated with test agent diluted in 100% DMSO (0.5% final DMSO concentration on cells) with a 10-point titration and a top concentration of 50 μM. Cells and compounds were then incubated for 72 hours in a 37° C. CO2 and humidity-controlled incubator, after which time cell viability was measured by adding CellTiter-Glo® (Promega G7572) reagent to all wells. Plates were incubated at room temperature for 20 minutes and then the well luminescence was read on an EnVision plate reader (Perkin Elmer Life Sciences).

[2] = biological target: Recombinant human JAK2 kinase domain protein (Residues 812-1132) (Homo sapiens, UniProt O60674); assay: JAK2 biochemical assay (microfluidic mobility shift, peptide phosphorylation); settings: Enzyme JAK2 Ki (nM), 25 μM ATP, 0.2 nM total JAK2
Recombinant human JAK2 kinase domain protein (Residues 812-1132), sequence (O60674 812-1132): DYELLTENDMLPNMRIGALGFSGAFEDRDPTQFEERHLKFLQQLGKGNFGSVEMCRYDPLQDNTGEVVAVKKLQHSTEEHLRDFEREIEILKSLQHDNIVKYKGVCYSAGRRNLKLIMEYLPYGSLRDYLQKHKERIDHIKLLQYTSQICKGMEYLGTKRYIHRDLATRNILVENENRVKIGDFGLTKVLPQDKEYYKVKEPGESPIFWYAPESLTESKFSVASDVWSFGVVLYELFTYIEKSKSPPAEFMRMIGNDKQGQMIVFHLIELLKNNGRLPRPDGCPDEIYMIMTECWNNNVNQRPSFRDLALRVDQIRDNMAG
Experimental: JAK1 and JAK2 Biochemical Assays
The in vitro biochemical assays quantify JAK-catalyzed phosphorylation of a synthetic peptide, as detected using a LabChip® EZ Reader II microfluidic mobility shift instrument (PerkinElmer; Waltham, Mass.). […] Y-1B is fluorescently labeled on the N-terminus with 5-FAM (5-carboxyfluorescein) and contains a single tyrosine residue (Y) that can be phosphorylated by JAK activity. The substrate peptide stock is prepared in DMSO at 5 mM.
In each titration experiment, test compound was tested in duplicate at each of the twelve concentrations. Blank reactions contained ATP, peptide, and DMSO, but no JAK or test compound, whereas uninhibited control reactions contained ATP, peptide, JAK, and DMSO, but no test compound.
Peptide plus ATP mixture (24 μL) was added to 1 μL of test compound in DMSO (or DMSO alone). The reactions were initiated by adding 25 μL of JAK enzyme to the inhibitor/peptide/ATP mixture before thoroughly mixing the resultant solution. Reactions were incubated at room temperature (22° C.-23° C.) in a final volume of 50 μL per well in 384-well plates.
In each reaction, the residual Y-1B substrate and the phospho-peptide product generated were separated using the EZ Reader II instrument. Electrophoretic separation of molecules of product from molecules of substrate was achieved using downstream and upstream voltages of −500 and −2600 V, respectively, at an operating pressure of −1.3 psi.
The extent (or percent) of conversion of substrate to product was calculated from the corresponding peak heights in the electropherogram using HTS Well Analyzer software, Version 5.2 (PerkinElmer), and the following equation (Equation 1): % conversion=[P÷(S+P)]×100 Equation 1 where S and P represent the peak heights of the substrate and product, respectively. After any baseline signal from blank wells containing no JAK was subtracted from the signal of all test wells, the % conversion data were converted to fractional activity as shown in Equation 2, where vi and vo are the % conversion in the presence and absence of test compound, respectively.

[3] = system: JAK1 pathway: P-STAT6 in TF-1 human erythroleukemia cells + IL-13; assay: P-STAT6 TF-1+Interleukin-13 (IL-13) assay; assay type: cell-based; settings: IL-13 stimulation, read-out: Cellular JAK1 PSTAT6 TF-1 + IL13 IC50
Experimental: (§4) TF-1 human erythroleukemia cells (ATCC®; Manassas, Va.; Catalog No. CRL-2003™) were grown in Roswell Park Memorial Institute (RPMI) medium supplemented with 10% heat-inactivated fetal bovine serum (FBS), 2 ng/mL granulocyte-macrophage colony-stimulating factor, 1×non-essential amino acids (NEAA), and 1 mM sodium pyruvate. The day before the assay, the cultures were transferred to Opti-MEM™, 1×NEAA, 1 mM sodium pyruvate, and 0.5% charcoal-stripped FBS (starve medium). Inhibitor stock solutions (5 mM in DMSO) were serially diluted 1:2 in DMSO to generate a 10-point concentration titration (at 500×test concentration), which was further diluted by a 50-fold dilution in Assay Medium (RPMI containing 1×NEAA and 1 mM sodium pyruvate) to generate a 10×concentration titration (in 2% DMSO). The cells (300,000 cells/well in 35 μL of Assay Medium) were seeded in 384-well Greiner plates. Diluted inhibitor at 10×concentration (5 μL) was added to the cells and the plates were incubated for 30 minutes at 37° C. in a humidified incubator. Cells were stimulated with the human recombinant cytokine at the respective EC90 concentrations, as previously determined for each individual lot. For the phosphorylated signal transducer and activator of transcription 6 (P-STAT6) TF-1+Interleukin-13 (IL-13) assay, 10 μL of 250 ng/mL IL-13 (R&D Systems; Minneapolis, Minn.) was added to the cells, which were then incubated for 10 minutes at 37° C. For the P-STAT5 TF-1+Erythropoietin (EPO) assay, 10 μL of 110 IU/mL EPO (Gibco Life Technologies, Catalog No. PHC2054) was added to the cells, which were then incubated for 30 min at 37° C. For both assays, the incubation was followed by addition to the cells of 5 μL of ice-cold 10× cell lysis buffer (Cell Signaling Technologies; Danvers, Mass.; Catalog No. 9803S) containing 1 mM phenylmethylsulfonyl fluoride (PMSF). Assay plates were frozen at −80° C. for a minimum of 1 horn. In the IL-13 assay, P-STAT6 was measured by coating goat anti-rabbit (GAR) plates (Meso Scale Discovery [MSD]; Rockville, Md.; Catalog No. MSD L21RA-1) with rabbit anti-human total STAT6 antibody (Cell Signaling Technologies; Catalog No. 9362S), incubating the cell lysates in the coated plates overnight at 4° C., and then detecting with mouse anti-P-STAT6 (Tyr641) Clone 16E12 antibody (MilliporeSigma; Burlington, Mass.; Catalog No. 05-590, custom labeled by MSD with SULFO-tag) using standard MSD plate processing, washing, and detection protocols. In the EPO assay, P-STAT5 was detected using the phospho-STAT5a,b Whole Cell Lysate Kit (MSD; Catalog No. K150IGD-1). The electrochemiluminescence (ECL) signal of wells was read on the MESO SECTOR S600 (MSD) reader.

[4] = Cell cytotoxicity assay A549 (CellTiter-Glo, 72 hours); assay type: cell-based; settings: human, A549 cells, Table 3; 72 hours, top concentration of 50 μM; read-out: Cytotox A549 EC50
Experimental: as §3

[5] = Cell cytotoxicity assay Jurkat (CellTiter-Glo, 72 hours); assay type: cell-based; settings: human, Jurkat clone E6-1 cells, Table 3; 72 hours, top concentration of 50 μM; read-out: Cytotox Jurkat EC50
Description: as §1, §2, §3

[6] = system: JAK2 pathway: P-STAT5 in TF-1 human erythroleukemia cells + EPO; assay: P-STAT5 TF-1+Erythropoietin (EPO) assay; assay type: cell-based; settings: EPO stimulation, read-out: Cellular JAK2 PSTAT5 TF-l + EPO IC50
Experimental: as §4

| SMILES | Ki [2] | IC50 ([3]; TF-1 cells) | IC50 ([6]; TF-1 cells) | IC50 ([3]; Homo sapiens, TF-1, TF-1 cells) | IC50 ([6]; Homo sapiens, TF-1, TF-1 cells) | EC50 at 72 h [1] | EC50 at 72 h [4] | EC50 at 72 h [5] |
| --- | --- | --- | --- | --- | --- | --- | --- | --- |
| Cn1cc(NC(=O)c2cnn3cccnc23)c(-c2cc(S(=O)(=O)C3CCCNC3)ccc2OC(F)F)n1 (single isomer, unassigned) [Example 37, N-[3-[2-(difluoromethoxy)-5-(3-piperidylsulfonyl)phenyl]-1-methyl-pyrazol-4-yl]pyrazolo[1,5-a]pyrimidine-3-carboxamide] | 0.54 nM | 51 nM | 38 nM | – | – | 31000 nM | ≥ 50000 nM | ≥ 50000 nM |
| CN(C)CCS(=O)(=O)c1ccc(OC(F)F)c(-c2nn(C)cc2NC(=O)c2cnn3cccnc23)c1 [Example 7, N-[3-[2-(difluoromethoxy)-5-[2-(dimethylamino)ethylsulfonyl]phenyl]-1-methyl-pyrazol-4-yl]pyrazolo[1,5-a]pyrimidine-3-carboxamide] | 0.49 nM | – | – | 21 nM | 22 nM | 6900 nM | 4100 nM | 2100 nM |
| C[C@@H](O)CS(=O)(=O)c1ccc(OC(F)F)c(-c2nn(C)cc2NC(=O)c2cnn3cccnc23)c1 (stereo in doubt) [Example 25, N-[3-[2-(difluoromethoxy)-5-[rac-(2R)-2-hydroxypropyl]sulfonyl-phenyl]-1-methyl-pyrazol-4-yl]pyrazolo[1,5-a]pyrimidine-3-carboxamide] | 0.2 nM | – | – | 20 nM | 39 nM | 48000 nM | ≥ 50000 nM | ≥ 50000 nM |
| Cn1cc(NC(=O)c2cnn3cccnc23)c(-c2cc(S(=O)(=O)c3ccn(C)c(=O)c3)ccc2OC(F)F)n1 [Example 44, N-[3-[2-(difluoromethoxy)-5-[(1-methyl-2-oxo-4-pyridyl)sulfonyl]phenyl]-1-methyl-pyrazol-4-yl]pyrazolo[1,5-a]pyrimidine-3-carboxamide] | 0.34 nM | – | – | 14 nM | 15 nM | 7000 nM | 24000 nM | 11000 nM |
| CC(CO)S(=O)(=O)c1ccc(OC(F)F)c(-c2nn(C)cc2NC(=O)c2cnn3cccnc23)c1 (single isomer, unassigned) [Example 23, N-[3-[2-(difluoromethoxy)-5-(2-hydroxy-1-methyl-ethyl)sulfonyl-phenyl]-1-methyl-pyrazol-4-yl]pyrazolo[1,5-a]pyrimidine-3-carboxamide] | 0.13 nM | – | – | 20 nM | 22 nM | 11000 nM | 28000 nM | 24000 nM |
| Cn1cc(NC(=O)c2cnn3cccnc23)c(-c2cc(S(=O)(=O)c3cn[nH]c3)ccc2OC(F)F)n1 [Example 41, N-[3-[2-(difluoromethoxy)-5-(1H-pyrazol-4-ylsulfonyl)phenyl]-1-methyl-pyrazol-4-yl]pyrazolo[1,5-a]pyrimidine-3-carboxamide] | 0.1 nM | – | – | 15 nM | 34 nM | 28000 nM | ≥ 50000 nM | 35000 nM |

Further compounds by falling Ki [2], results first:

| Ki [2] | IC50 ([3]; TF-1 cells) | IC50 ([6]; TF-1 cells) | IC50 ([3]; Homo sapiens, TF-1, TF-1 cells) | IC50 ([6]; Homo sapiens, TF-1, TF-1 cells) | SMILES | EC50 at 72 h [1] | EC50 at 72 h [4] | EC50 at 72 h [5] |
| --- | --- | --- | --- | --- | --- | --- | --- | --- |
| 0.2 nM | – | – | 14 nM | 12 nM | Cn1cc(NC(=O)c2cnn3cccnc23)c(-c2cc(S(=O)(=O)C3CCC3)ccc2OC(F)F)n1 [Example 2, N-[3-[5-cyclobutylsulfonyl-2-(difluoromethoxy)phenyl]-1-methyl-pyrazol-4-yl]pyrazolo[1,5-a]pyrimidine-3-carboxamide] | 27500 nM | 25500 nM | 38500 nM |
| 0.19 nM | – | – | 16 nM | 29 nM | Cn1cc(NC(=O)c2cnn3cccnc23)c(-c2cc(S(=O)(=O)CCO)ccc2OC(F)F)n1 [Example 5, N-[3-[2-(difluoromethoxy)-5-(2-hydroxyethylsulfonyl)phenyl]-1-methyl-pyrazol-4-yl]pyrazolo[1,5-a]pyrimidine-3-carboxamide] | 10200 nM | 45500 nM | 23000 nM |
| 0.19 nM | – | – | 5.8 nM | 14 nM | Cn1cc(S(=O)(=O)c2ccc(OC(F)F)c(-c3nn(C)cc3NC(=O)c3cnn4cccnc34)c2)cn1 [Example 35, N-[3-[2-(difluoromethoxy)-5-(1-methylpyrazol-4-yl)sulfonyl-phenyl]-1-methyl-pyrazol-4-yl]pyrazolo[1,5-a]pyrimidine-3-carboxamide] | 17000 nM | 22000 nM | 21000 nM |
| 0.14 nM | – | – | 3.1 nM | 26 nM | CS(=O)(=O)c1ccc(OC(F)F)c(-c2nn(CC#N)cc2NC(=O)c2cnn3cccnc23)c1 [Example 28, N-[1-(cyanomethyl)-3-[2-(difluoromethoxy)-5-methylsulfonyl-phenyl]pyrazol-4-yl]pyrazolo[1,5-a]pyrimidine-3-carboxamide] | 24000 nM | ≥ 50000 nM | 39000 nM |
| 0.11 nM | – | – | 3.1 nM | 6.4 nM | Cn1cc(NC(=O)c2cnn3cccnc23)c(-c2cc(S(=O)(=O)c3ccccc3)ccc2OC(F)F)n1 [Example 40, N-[3-[5-(benzenesulfonyl)-2-(difluoromethoxy)phenyl]-1-methyl-pyrazol-4-yl]pyrazolo[1,5-a]pyrimidine-3-carboxamide] | ≥ 50000 nM | ≥ 50000 nM | ≥ 50000 nM |
